# Activity calls are given as the source filed them. The rule behind the calls is not given here.
# Columns and labels:
# A549 [1] = experiment: Antitumor activity against human A549 cells xenografted in nude BALB/C mouse assessed as scab formation at 8 uM after 24 hrs followed by irradiated with light dose 78 J/cm2 measured after 20 days; format: functional, cell-based
# A549 [2] = experiment: Antitumor activity against human A549 cells xenografted in nude BALB/C mouse assessed as reduction of tumor growth at 8 uM after 20 days; format: functional, cell-based
# [3] = Drug uptake in human U87 cell mitochondria by using Hoechst 33258 staining; format: ADME; conditions: u-87mg atcc
# [4] = Drug uptake in human U87 cell nucleus by using Hoechst 33258 staining; format: ADME, cell-based; conditions: u-87mg atcc
# [5] = Drug uptake in human A549 cell mitochondria by using Hoechst 33258 staining; format: ADME
# [6] = Drug uptake in human A549 cell nucleus by using Hoechst 33258 staining; format: ADME, cell-based
# AGS = experiment: Cytotoxicity against human AGS cells assessed as cell death at 4 uM after 24 hrs followed by irradiated with light dose 0.18 J/cm2 by MTT assay; format: functional, cell-based
# SGC-7901 = experiment: Cytotoxicity against human SGC7901 cells assessed as cell death at 4 uM after 24 hrs followed by irradiated with light dose 0.18 J/cm2 by MTT assay; format: functional, cell-based
# A549 [7] = experiment: Cytotoxicity against human A549 cells assessed as cell death at 4 uM after 24 hrs followed by irradiated with light dose 0.18 J/cm2 by MTT assay; format: functional, cell-based
# SW480 = experiment: Cytotoxicity against human SW480 cells assessed as cell death at 4 uM after 24 hrs followed by irradiated with light dose 0.18 J/cm2 by MTT assay; format: functional, cell-based
# HL-60 [8] = experiment: Cytotoxicity against human HL60 cells assessed as cell death at 4 uM after 24 hrs followed by irradiated with light dose 0.18 J/cm2 by MTT assay; format: functional, cell-based
# HL-60 [9] = experiment: Cytotoxicity against human HL60 cells assessed as cell survival at 4 uM after 24 hrs followed by irradiated with light dose 0.18 J/cm2 by MTT assay; format: functional; conditions: HL-60, light or radiation study, read-out: Activity
# A549 [10] = experiment: Antiproliferative activity against human A549 cells assessed as reduction of colony formation at 4 uM irradiated with light dose 0.18 J/cm2 for 14 days before compound challenge measured after 24 hrs using giemsa staining by microscopic analysis; format: functional, cell-based
# A549 [11] = experiment: Inhibition of cell invasion in human A549 cells assessed as invasion index at 4 uM after 72 hrs followed by irradiated with light dose 0.18 J/cm2 relative to control; format: functional; conditions: A549, light or radiation study
# A549 [12] = experiment: Inhibition of cell invasion in human A549 cells assessed as invasion index at 4 uM after 72 hrs relative to control; format: functional; conditions: A549, 72 h
# A549 [13] = experiment: Cell cycle arrest in human A549 cells assessed as accumulation at G0/G1 phase at 4 uM after 24 hrs by flow cytometry; format: functional
# A549 [14] = experiment: Cell cycle arrest in human A549 cells assessed as accumulation at G2/M phase at 4 uM after 24 hrs by flow cytometry; format: functional
# A549 [15] = experiment: Cell cycle arrest in human A549 cells assessed as accumulation at S phase at 4 uM after 24 hrs by flow cytometry; format: functional
# A549 [16] = experiment: Cell cycle arrest in human A549 cells assessed as accumulation at G0/G1 phase at 4 uM after 24 hrs followed by irradiated with light dose 0.18 J/cm2 by flow cytometry; format: functional
# A549 [17] = experiment: Cell cycle arrest in human A549 cells assessed as accumulation at G2/M phase at 4 uM after 24 hrs followed by irradiated with light dose 0.18 J/cm2 by flow cytometry; format: functional
# A549 [18] = experiment: Cell cycle arrest in human A549 cells assessed as accumulation at S phase at 4 uM after 24 hrs followed by irradiated with light dose 0.18 J/cm2 by flow cytometry; format: functional
# A549 [19] = experiment: Induction of apoptosis in human A549 cells assessed as pre-necrotic cells at 4 uM after 24 hrs using annexin-V FITC/PI double staining by flow cytometry; format: functional
# A549 [20] = experiment: Induction of apoptosis in human A549 cells assessed as late apoptotic cells at 4 uM after 24 hrs using annexin-V FITC/PI double staining by flow cytometry; format: functional
# A549 [21] = experiment: Induction of apoptosis in human A549 cells assessed as viable cells at 4 uM after 24 hrs using annexin-V FITC/PI double staining by flow cytometry; format: functional; conditions: A549, 24 h, read-out: Activity
# A549 [22] = experiment: Induction of apoptosis in human A549 cells assessed as apoptotic cells at 4 uM after 24 hrs using annexin-V FITC/PI double staining by flow cytometry; format: functional
# A549 [23] = experiment: Induction of apoptosis in human A549 cells assessed as pre-necrotic cells at 4 uM after 24 hrs followed by irradiated with light dose 0.18 J/cm2 using annexin-V FITC/PI double staining by flow cytometry; format: functional
# A549 [24] = experiment: Induction of apoptosis in human A549 cells assessed as late apoptotic cells at 4 uM after 24 hrs followed by irradiated with light dose 0.18 J/cm2 using annexin-V FITC/PI double staining by flow cytometry; format: functional
# A549 [25] = experiment: Induction of apoptosis in human A549 cells assessed as viable cells at 4 uM after 24 hrs followed by irradiated with light dose 0.18 J/cm2 using annexin-V FITC/PI double staining by flow cytometry; format: functional; conditions: A549, light or radiation study, read-out: Activity
# A549 [26] = experiment: Induction of apoptosis in human A549 cells assessed as apoptotic cells at 4 uM after 24 hrs followed by irradiated with light dose 0.18 J/cm2 using annexin-V FITC/PI double staining by flow cytometry; format: functional
# A549 [27] = experiment: Induction of apoptosis in human A549 cells assessed as pre-necrotic cells at 4 uM after 24 hrs using annexin-V-PE/7-AAD double staining by flow cytometry; format: functional
smiles,measurement,setting,value
C=Cc1c(C)c2cc3nc(c4c5[nH]c(cc6nc(cc1[nH]2)C(C)=C6CC)c(C)c5C(=O)N(C1CCCCC1)C4=O)[C@@H](CCC(=O)O)[C@@H]3C,Activity,A549 [1],Active
same,Activity,A549 [2],inactive
same,Drug uptake,[3],Active
same,Drug uptake,[4],Active
same,Drug uptake,[5],Active
same,Drug uptake,[6],Active
same,Activity,AGS,Active
same,Activity,SGC-7901,Active
same,Activity,A549 [7],Active
same,Activity,SW480,Active
same,Activity,HL-60 [8],Active
same,viability at 4 µM,HL-60 [9],78.6%
same,Activity,A549 [10],Active
same,inhibition at 4 µM,A549 [11],15.7%
same,inhibition at 4 µM,A549 [12],76.4%
same,Activity,A549 [13],53.48%
same,Activity,A549 [14],11.07%
same,Activity,A549 [15],35.44%
same,Activity,A549 [16],22.37%
same,Activity,A549 [17],56.07%
same,Activity,A549 [18],21.56%
same,Activity,A549 [19],0.24%
same,Activity,A549 [20],3.03%
same,viability at 4 µM,A549 [21],92.3%
same,Activity,A549 [22],0.99%
same,Activity,A549 [23],0.4%
same,Activity,A549 [24],23.28%
same,viability at 4 µM,A549 [25],2.08%
same,Activity,A549 [26],74.24%
same,Activity,A549 [27],0.41%

# Reference: ChEMBL document CHEMBL1240505, “Studies on preparation and photodynamic mechanism of chlorin P6-13,15-N-(cyclohexyl)cycloimide (Chlorin-H) and its antitumor effect for photodynamic therapy in vitro and in vivo” (Bioorg Med Chem, 2010)
